Converted amounts (≈) assume the structure as drawn. Where two headings read alike, the source gives them in different places.
Legend:
C. difficile = assay: MIC by broth microdilution against C. difficile strains; type: cell-based, Clostridioides difficile; conditions: Clostridioides difficile; for MIC: Table 9, read-out: MIC
MRSA (NRS70, NRS119) = assay: MIC against MRSA strains; type: cell-based, Staphylococcus aureus; conditions: Staphylococcus aureus, read-out: MIC
S. aureus ATCC29213 = assay: MIC against MSSA; type: cell-based, Staphylococcus aureus; conditions: Staphylococcus aureus; S. aureus ATCC29213; Table 1; read-out: MIC
E. faecium NCTC7171 = assay: MIC against E. faecium; type: cell-based, Enterococcus faecium; conditions: Enterococcus faecium; E. faecium NCTC7171; Table 1; read-out: MIC
Bacteroides fragilis = assay: MIC against gut bacterium Bacteroides fragilis; type: cell-based; conditions: Bacteroides fragilis, Bacteroides fragilis strain HM-709, read-out: MIC
Bifidobacterium longum = assay: MIC against gut bacterium Bifidobacterium longum; type: cell-based; conditions: Bifidobacterium longum, Bifidobacterium longum strain HM-846, read-out: MIC
Corynebacterium spp. = assay: MIC against gut bacterium Corynebacterium spp.; type: cell-based; conditions: Corynebacterium, Corynebacterium spp. strain HM-784
Fusobacterium nucleatum = assay: MIC against gut bacterium Fusobacterium nucleatum; type: cell-based; conditions: Fusobacterium nucleatum, Fusobacterium nucleatum strain HM-992, read-out: MIC
Lactobacillus reuteri = assay: MIC against gut bacterium Lactobacillus reuteri; type: cell-based
Lactobacillus gasseri = assay: MIC against gut bacterium Lactobacillus gasseri; type: cell-based
Veillonella sp. HM-49 = assay: MIC against gut bacterium Veillonella sp.; type: cell-based
Eubacterium sp. = assay: MIC against gut bacterium Eubacterium sp.; type: cell-based; conditions: Eubacterium, Eubacterium sp. strain HM-178, read-out: MIC

Question: For Cc1ncc([N+](=O)[O-])n1CCO [MTZ, metronidazole, reference compound], which MIC (C. difficile; C. difficile NR-32903) is on record?
Answer: The MIC was 0.5 µg/mL (≈ 2.92 µM).

Question: What about the MIC (C. difficile; C. difficile NR-32904) of the same compound?
Answer: The MIC was 0.5 µg/mL (≈ 2.92 µM).

Question: And the MIC (C. difficile; C. difficile NR-49277)?
Answer: Its MIC is 0.5 µg/mL (≈ 2.92 µM).

Question: And the MIC (C. difficile; C. difficile NR-49278)?
Answer: Its MIC is 0.5 µg/mL (≈ 2.92 µM).

Question: What about the MIC (C. difficile; C. difficile NR-49279) of the same compound?
Answer: The MIC was 1 µg/mL (≈ 5.84 µM).

Question: What about the MIC (C. difficile; C. difficile NR-49280) of the same compound?
Answer: The MIC was 1 µg/mL (≈ 5.84 µM).

Question: What about the MIC (C. difficile; C. difficile NR-49281) of the same compound?
Answer: The MIC was 1 µg/mL (≈ 5.84 µM).

Question: And the MIC (C. difficile; C. difficile NR-49282)?
Answer: Its MIC is 0.5 µg/mL (≈ 2.92 µM).

Question: What about the MIC (C. difficile; C. difficile NR-49283) of the same compound?
Answer: The MIC was 0.5 µg/mL (≈ 2.92 µM).

Question: And the MIC (C. difficile; C. difficile NR-49284)?
Answer: The MIC was 0.5 µg/mL (≈ 2.92 µM).

Question: What about the MIC (C. difficile; C. difficile NR-49285) of the same compound?
Answer: The MIC was 0.5 µg/mL (≈ 2.92 µM).

Question: What about the MIC (C. difficile; C. difficile NR-49286) of the same compound?
Answer: The MIC was 1 µg/mL (≈ 5.84 µM).

Question: And the MIC (C. difficile; C. difficile NR-49287)?
Answer: Its MIC is 0.5 µg/mL (≈ 2.92 µM).

Question: And the MIC (C. difficile; C. difficile NR-49288)?
Answer: Its MIC is 0.5 µg/mL (≈ 2.92 µM).

Question: And the MIC (C. difficile; C. difficile NR-49289)?
Answer: The MIC was 0.5 µg/mL (≈ 2.92 µM).

Question: And the MIC (C. difficile; C. difficile NR-49290)?
Answer: The MIC was 1 µg/mL (≈ 5.84 µM).

Question: What about the MIC (C. difficile; C. difficile NR-49291) of the same compound?
Answer: The MIC was 1 µg/mL (≈ 5.84 µM).

Question: What about the MIC (C. difficile; C. difficile NR-49293) of the same compound?
Answer: Its MIC is 0.5 µg/mL (≈ 2.92 µM).

Question: What about the MIC (C. difficile; C. difficile NR-49295) of the same compound?
Answer: Its MIC is 0.5 µg/mL (≈ 2.92 µM).

Question: What about the MIC (C. difficile; C. difficile NR-49296) of the same compound?
Answer: The MIC was 0.5 µg/mL (≈ 2.92 µM).

Question: What about the MIC (C. difficile; C. difficile NR-49297) of the same compound?
Answer: The MIC was 0.5 µg/mL (≈ 2.92 µM).

Question: And the MIC (C. difficile; C. difficile NR-49298)?
Answer: Its MIC is 1 µg/mL (≈ 5.84 µM).

Question: What about the MIC (C. difficile; C. difficile NR-49299) of the same compound?
Answer: Its MIC is 0.5 µg/mL (≈ 2.92 µM).

Question: And the MIC (C. difficile; C. difficile NR-49300)?
Answer: The MIC was 0.5 µg/mL (≈ 2.92 µM).

Question: What about the MIC (C. difficile; C. difficile NR-49301) of the same compound?
Answer: Its MIC is 0.5 µg/mL (≈ 2.92 µM).

Question: And the MIC (C. difficile; C. difficile NR-49303)?
Answer: Its MIC is 0.5 µg/mL (≈ 2.92 µM).

Question: And the MIC (C. difficile; C. difficile NR-49304)?
Answer: Its MIC is 0.5 µg/mL (≈ 2.92 µM).

Question: What about the MIC (C. difficile; C. difficile NR-49306) of the same compound?
Answer: The MIC was 0.5 µg/mL (≈ 2.92 µM).

Question: What about the MIC (C. difficile; C. difficile NR-49307) of the same compound?
Answer: Its MIC is 0.5 µg/mL (≈ 2.92 µM).

Question: And the MIC (C. difficile; C. difficile NR-49308)?
Answer: The MIC was 0.5 µg/mL (≈ 2.92 µM).

Question: What about the MIC (C. difficile; C. difficile NR-49309) of the same compound?
Answer: The MIC was 0.25 µg/mL (≈ 1.46 µM).

Question: What about the MIC (C. difficile; C. difficile NR-49311) of the same compound?
Answer: Its MIC is 0.5 µg/mL (≈ 2.92 µM).

Question: And the MIC (C. difficile; C. difficile NR-49312)?
Answer: Its MIC is 0.5 µg/mL (≈ 2.92 µM).

Question: And the MIC (C. difficile; C. difficile NR-49313)?
Answer: Its MIC is 0.5 µg/mL (≈ 2.92 µM).

Question: What about the MIC (C. difficile; C. difficile NR-49314) of the same compound?
Answer: Its MIC is 0.5 µg/mL (≈ 2.92 µM).

Question: And the MIC (C. difficile; C. difficile NR-49315)?
Answer: Its MIC is 0.5 µg/mL (≈ 2.92 µM).

Question: And the MIC (C. difficile; C. difficile NR-49316)?
Answer: Its MIC is 0.5 µg/mL (≈ 2.92 µM).

Question: And the MIC (C. difficile; C. difficile NR-49317)?
Answer: The MIC was 0.5 µg/mL (≈ 2.92 µM).

Question: What about the MIC (C. difficile; C. difficile NR-49319) of the same compound?
Answer: The MIC was 0.5 µg/mL (≈ 2.92 µM).

Question: What about the MIC (C. difficile; C. difficile NR-49320) of the same compound?
Answer: Its MIC is 0.5 µg/mL (≈ 2.92 µM).

Question: What about the MIC (C. difficile; C. difficile NR-49321) of the same compound?
Answer: The MIC was 0.5 µg/mL (≈ 2.92 µM).

Question: What about the MIC (C. difficile; C. difficile NR-49323) of the same compound?
Answer: Its MIC is 0.25 µg/mL (≈ 1.46 µM).

Question: What about the MIC (C. difficile; C. difficile NR-49324) of the same compound?
Answer: The MIC was 0.25 µg/mL (≈ 1.46 µM).

Question: And the MIC (C. difficile; C. difficile NR-49325)?
Answer: Its MIC is 0.5 µg/mL (≈ 2.92 µM).

Question: And the MIC (C. difficile; C. difficile NR-49326)?
Answer: Its MIC is 0.5 µg/mL (≈ 2.92 µM).

Question: And the MIC (C. difficile; C. difficile NR-49327)?
Answer: The MIC was 0.5 µg/mL (≈ 2.92 µM).

Question: And the MIC (C. difficile; C. difficile NR-49328)?
Answer: The MIC was 0.25 µg/mL (≈ 1.46 µM).

Question: What about the MIC (C. difficile; C. difficile NR-49329) of the same compound?
Answer: Its MIC is 0.25 µg/mL (≈ 1.46 µM).

Question: What about the MIC50 (C. difficile; 101 C. difficile strains) of the same compound?
Answer: The MIC50 was 0.5 µg/mL (≈ 2.92 µM).

Question: What about the MIC90 (C. difficile; 101 C. difficile strains, read-out: MIC90 (101 strains)) of the same compound?
Answer: The MIC90 was 1 µg/mL (≈ 5.84 µM).

Question: What about the MIC (MRSA (NRS70, NRS119); MRSA NRS70, Table 1) of the same compound?
Answer: The MIC was greater than 128 µg/mL.

Question: And the MIC (MRSA (NRS70, NRS119); MRSA NRS70, Table 7)?
Answer: Its MIC is greater than 128 µg/mL.

Question: What about the MIC (MRSA (NRS70, NRS119); MRSA NRS119, Table 1) of the same compound?
Answer: The MIC was greater than 128 µg/mL.

Question: What about the MIC (S. aureus ATCC29213) of the same compound?
Answer: The MIC was greater than 128 µg/mL.

Question: What about the MIC (E. faecium NCTC7171) of the same compound?
Answer: Its MIC is greater than 128 µg/mL.

Question: What about the MIC (Bacteroides fragilis; Table 1) of the same compound?
Answer: The MIC was 0.5 µg/mL (≈ 2.92 µM).

Question: What about the MIC (Bacteroides fragilis; Table 7) of the same compound?
Answer: Its MIC is 1 µg/mL (≈ 5.84 µM).

Question: And the MIC (Bifidobacterium longum; Table 1)?
Answer: The MIC was 0.5 µg/mL (≈ 2.92 µM).

Question: What about the MIC (Bifidobacterium longum; Table 7) of the same compound?
Answer: The MIC was 1 µg/mL (≈ 5.84 µM).

Question: What about the MIC (Corynebacterium spp.; Table 1) of the same compound?
Answer: The MIC was greater than 32 µg/mL.

Question: And the MIC (Corynebacterium spp.; Table 7)?
Answer: The MIC was greater than 32 µg/mL.

Question: What about the MIC (Fusobacterium nucleatum; Table 1) of the same compound?
Answer: The MIC was 2 µg/mL (≈ 11.7 µM).

Question: And the MIC (Fusobacterium nucleatum; Table 7)?
Answer: Its MIC is 2 µg/mL (≈ 11.7 µM).

Question: And the MIC (Lactobacillus reuteri; Lactobacillus reuteri strain HM-102, Table 7)?
Answer: The MIC was greater than 32 µg/mL.

Question: What about the MIC (Lactobacillus reuteri; Limosilactobacillus reuteri, Lactobacillus reuter strain HM-102, Table 1, read-out: MIC) of the same compound?
Answer: The MIC was greater than 32 µg/mL.

Question: What about the MIC (Lactobacillus gasseri; Lactobacillus gasseri strain HM-644, Table 7) of the same compound?
Answer: The MIC was greater than 32 µg/mL.

Question: And the MIC (Lactobacillus gasseri; Lactobacillus gasseri, Lactobacillus gasser strain HM-644, Table 1, read-out: MIC)?
Answer: Its MIC is greater than 32 µg/mL.

Question: And the MIC (Veillonella sp. HM-49; SP.HM49, Veillonella sp. HM-49, Table 1, read-out: MIC)?
Answer: The MIC was 2 µg/mL (≈ 11.7 µM).

Question: What about the MIC (Veillonella sp. HM-49; Veillonella sp. strain HM-49, Table 7) of the same compound?
Answer: The MIC was 2 µg/mL (≈ 11.7 µM).

Question: What about the MIC (Eubacterium sp.; Table 1) of the same compound?
Answer: Its MIC is 1 µg/mL (≈ 5.84 µM).

Question: What about the MIC (Eubacterium sp.; Table 7) of the same compound?
Answer: The MIC was 1 µg/mL (≈ 5.84 µM).
